Source: PubChem BioAssay (NCI)
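Results reflect a 48-hour exposure of cells in 96-well plates to compound at five concentrations. Abbreviation: GI50, concentration required for 50% inhibition of growth. TGI marks complete inhibition of growth.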

Legend:
Test in all cases: NCI anticancer screen, dose series, 48 h
HOP-92 NSCLC = test system: HOP-92 NSCLC
SK-MEL-5 melanoma = test system: SK-MEL-5 melanoma
NCI-H23 lung = test system: NCI-H23 lung
SF-539 CNS = test system: SF-539 CNS
XF 498 CNS = test system: XF 498 CNS
SF-268 CNS = test system: SF-268 CNS
DMS 114 small cell lung = test system: DMS 114 small cell lung
T-47D breast = test system: T-47D breast
MDA-MB-231 breast = test system: MDA-MB-231 breast
HS 578T breast = test system: HS 578T breast

Row | Compound | GI50 (HOP-92 NSCLC) | TGI (HOP-92 NSCLC) | GI50 (SK-MEL-5 melanoma) | TGI (SK-MEL-5 melanoma) | GI50 (NCI-H23 lung) | TGI (NCI-H23 lung) | GI50 (SF-539 CNS) | TGI (SF-539 CNS) | GI50 (XF 498 CNS) | TGI (XF 498 CNS) | GI50 (SF-268 CNS) | TGI (SF-268 CNS) | GI50 (DMS 114 small cell lung) | TGI (DMS 114 small cell lung) | GI50 (T-47D breast) | TGI (T-47D breast) | GI50 (MDA-MB-231 breast) | TGI (MDA-MB-231 breast) | GI50 (HS 578T breast) | TGI (HS 578T breast)
1 | CC(=O)OCC1OC([Se-])C(OC(C)=O)C(OC(C)=O)C1OC(C)=O.N#CCC[PH+](CCC#N)CCC#N.[Au+] (stereo not drawn) | 12.1 µM | 52.2 µM | 3430 nM | 15.9 µM | 4.55 µM | 23.1 µM | 15.3 µM | 41.2 µM | 8.09 µM | 34.6 µM | 10.1 µM | > 100 µM | – | – | – | – | – | – | – | –
2 | O=C([O-])CCc1ccccc1.O=C([O-])CCc1ccccc1.O=C([O-])CCc1ccccc1.O=C([O-])CCc1ccccc1.[Mo+2].[Mo+2] | 43.4 µM | > 100 µM | > 100000 nM | > 100 µM | > 100 µM | > 100 µM | > 100 µM | > 100 µM | – | – | > 100 µM | > 100 µM | > 100 µM | > 100 µM | – | – | – | – | – | –
3 | O=C(O)c1ccc(C(=O)O)c(C(=O)O)c1.[NH-]C1CCCCC1[NH-].[Pt+2] | 14.8 µM | 53.9 µM | 1430 nM | 14.5 µM | 4.87 µM | 38.4 µM | 4.29 µM | 43.5 µM | 1.8 µM | 16.5 µM | 7.54 µM | > 87.4 µM | – | – | 6.58 µM | 67.2 µM | 16700 nM | > 73.6 µM | 13500 nM | 84.5 µM
4 | NC(=S)N/N=C(\CCC(=O)Nc1ccccc1[N+](=O)[O-])CC(=O)c1ccco1 | – | > 100 µM | – | > 100 µM | – | > 100 µM | – | > 100 µM | – | > 100 µM | – | > 100 µM | – | > 100 µM | – | – | – | – | – | –
5 | O=c1c(O)cc2c(O)oc3c(=O)c(O)c(O)c4c(O)oc1c2c43 | – | > 100 µM | – | > 100 µM | – | > 100 µM | – | > 100 µM | – | – | – | > 100 µM | – | 67.7 µM | – | – | – | – | – | –
6 | O=c1nc(N2CCCC2)nc(N2CCCC2)s1 | – | > 100 µM | – | > 100 µM | – | > 100 µM | – | > 100 µM | – | > 100 µM | – | > 100 µM | – | > 100 µM | – | – | – | – | – | –
7 | C/C(=N\O)c1cccc(Nc2cc(-c3ccccc3)nc3c(O)cccc23)c1 | 1.91 µM | 13.7 µM | 1530 nM | 16 µM | 4.2 µM | 20.2 µM | 2.2 µM | 9.85 µM | – | – | 4.38 µM | 39.5 µM | – | – | 2.36 µM | 30.5 µM | 2340 nM | 13.3 µM | 4340 nM | > 60 µM
8 | N#Cc1c(-c2ccccc2)cc(-c2cccs2)c(C#N)c1N | – | > 100 µM | – | > 100 µM | – | – | – | > 100 µM | – | > 100 µM | – | > 100 µM | – | – | – | – | – | – | – | –
9 | O=C(Cc1ccc(Nc2ccnc(C(F)(F)F)c2)cc1)N/N=C/c1ccccc1O | 1.97 µM | 21 µM | 2580 nM | 11.1 µM | 4.23 µM | > 59.1 µM | 2.44 µM | 12.2 µM | – | – | 2.17 µM | > 73.8 µM | – | – | 3.26 µM | 17.7 µM | 2550 nM | > 74.9 µM | 2660 nM | 29 µM
10 | CC(=O)N(CCN1C(=O)c2ccccc2C1=O)CCN1C(=O)c2ccccc2C1=O | – | > 100 µM | – | > 100 µM | – | > 100 µM | – | – | – | > 100 µM | – | > 100 µM | – | > 100 µM | – | – | – | – | – | –
11 | CCN1C(=O)N(CC)C2C1NC(=S)N2/N=C/C=C/c1ccccc1OC (stereo not drawn) | 0.0269 µM | 27.1 µM | 30.5 nM | 0.158 µM | 0.0412 µM | > 100 µM | 0.0228 µM | 0.0771 µM | – | – | 0.0535 µM | > 100 µM | – | – | 34.6 µM | > 100 µM | 41.3 nM | – | 51.4 nM | > 100 µM
12 | Oc1ccc(Cc2ccc(O)c(C3CC(c4ccc(Cl)cc4)=NN3)c2)cc1C1CC(c2ccc(Cl)cc2)=NN1 (stereo not drawn) | 3.39 µM | 20.9 µM | 2810 nM | 11.5 µM | 3.07 µM | > 37.1 µM | 4.69 µM | > 40.2 µM | – | – | 3.32 µM | 27.2 µM | – | – | 3.15 µM | > 39.7 µM | 2490 nM | 8.94 µM | 2480 nM | 24.8 µM
13 | CCC1c2cc3n(c(=O)c2COC1O)Cc1c-3nc2ccccc2c1Cl (stereo not drawn) | – | > 100 µM | – | > 100 µM | – | > 100 µM | – | > 100 µM | – | > 100 µM | – | > 100 µM | – | > 100 µM | – | – | – | – | – | –
